# Assay results taken from US8329617B2, “Compositions and methods for synergistic manipulation of plant and insect defenses” (Plant Bioscience Limited, priority 2007, dated 2012).
# Assays:
# [1] = system: esterase; settings: topical application of 1 ul of 0.1% PBO
# Method: The esterase activity of individuals from a clone of resistant Myzus persicae was measured at zero time, then at hourly intervals following in vivo topical application of 1 ul of 0.1% PBO. […] The assay would also be continued to determine the time taken for the esterase levels to return to normal.
# [2] = system: whitefly (B. tabaci); assay: Bioassay: B. tabaci pupae protein on cotton and tomato plants treated with BABA and/or PBO; assay type: in vivo, Bemisia tabaci; settings: 3 mM BABA root drench, PBO E spray
# Method: In all bioassay experiments the control plants were sprayed with deionised water. Initially seven treatments were used (Table 1b) to test all chemical variables. […] Analysis of protein in each treatment was conducted using Bradford Reagent: the data were analysed using the computer programme ‘GraFit’ (Erithacus software, Berkeley). To calculate the calibration curve a single logarithmic curve was used with regression analysis taking the values of the treatment wells (averages of the three readings taken: technical replicates). Laboratory tests were undertaken to compare effects of combined and single treatments of PBO and BABA on control of aphid (M. persicae) on potato, pepper, and black mustard and whitefly (B. tabaci) on cotton and tomato. All tests included untreated and blank (water) controls, and both single and combined applications of PBO and BABA. […] Adults were added to the plant 2 days after treatment, and removed after 24 h. The eggs laid were then left for 16-18 days until they reached the pupal stage. The total pupal protein on the plant was tested using the Bradford reagent.
smiles,measurement,setting,value
"CCCCOCCOCCOCc1cc2c(cc1CCC)OCO2 [PBO, 2-(2-butoxyethoxy)ethyl 6-propylpiperonyl ether]",time delay for esterase inhibition,[1]; individual cotton bollworms,5 h
same,optimal time delay for esterase inhibition,[1]; individual whiteflies,10 h
same,Protein WF (Av),"[2]; cotton plants, ~16 days, week 1",0.14 µg
same,Protein WF (Av),"[2]; cotton plants, ~16 days, week 2",0.14 µg
same,Protein WF (Av),"[2]; cotton plants, ~16 days, week 3",0.15 µg
same,Protein WF (Av),"[2]; tomato plants, week 1",0.23 µg
same,Protein WF (Av),"[2]; tomato plants, week 2",0.33 µg
same,Protein WF (Av),"[2]; tomato plants, week 3",0.32 µg
